Here are results for 8 molecules from patent publication US6383479B1, “Neutrophil-activating factor” (Novartis AG, priority 1987, dated 2002).

For data set [1], the system named is human neutrophils. To be noted: Wymann et al., J. Biol. Chem. 262 [1987] 12048; cited from earlier work.
For data set [2], the system named is human neutrophils. In words: superoxide formation (SOD-sensitive cytochrome c reduction) by human neutrophils. The class given is cell-based. The settings on record: 1 μm PAF for 2 minutes. How it is done:
a) Superoxide production: neutrophils (3×10^6 /ml) are preincubated at 37° with or without 1 μm PAF for 2 minutes and then stimulated with increasing amounts of NAF. Recordings of cytochrome c reduction following NAF addition are shown.
Superoxide formation is measured at 37° as the SOD sensitive reduction of ferricytochrome c (M. Markert et al., Methods Enzymol. 132 [1984] 267). The assay mixture (800 μl) consists of 0.75×10^6 cells/ml PBS-BSA containing 85 μM cytochrome c. Absorbance changes are recorded in a Hewlett-Packard 8451A diode array spectrophotometer equipped with a thermostated seven-place cuvette exchanger. Table 4 documents the capacity of NAF to elicit the respiratory burst in human neutrophils: […]

Data set [3] relates to New Zealand albino rabbits. In words: neutrophil accumulation and plasma leakage in rabbit skin after intradermal injection. In kind it is in vivo. To be noted: 2 h; for effect on neutrophil accumulation induced by NAF: NAF 10^−9 moles; for effect on neutrophil accumulation induced by fMLP: fMLP 10^−9 moles. An excerpt: Inflammatory responses are examined in the skin of conscious 2.0 to 2.5 kg New Zealand albino rabbits. Erythrocytes in blood from donor rabbits are sedimented with hydroxyethyl cellulose (Polysciences, Warrington, Pa.) and neutrophils in the resultant leucocyte-rich plasma are purified (>94% neutrophils) by density gradient centrifugation on Percoll (Pharmacia, Uppsala, Sweden). Cells are resuspended in Ca^2+ and Mg^2+—free Tyrode's solution containing 10% platelet poor plasma to a concentration of 10^6 leukocytes/ml and labeled for 15 min at room temperature with 40 μCi ^111indium-oxine (Amersham) per 10^6 cells. The labeled cells are washed by centrifugation through 10% platelet-poor plasma and approximately 10^6 cells per recipient are mixed with 10 μCi ^125iodine-labeled human serum albumin (Amersham) and injected intravenously through the lateral ear vein of rabbits with inflammatory lesions under study. Intradermal injections of inflammatory agents are then made and animals are killed 2 h later in studies with actinomycin D and polymyxin B, and 4 h later in dose-response experiments. Midway through the period that radiolabeled cells are in circulation, a blood sample is collected and the specific activities of neutrophils and plasma in blood are determined. Radioactivity in inflammatory lesions at the end of each experiment are determined in a multichannel gamma counter, the activity in control skin sites is subtracted and the absolute number of neutrophils and volume of plasma accumulating in inflammatory lesions are calculated from the specific activities. Neutrophil numbers in inflammatory lesions are standardised between animals by expressing the results as cell number per 10^6 neutrophils circulating per ml peripheral blood, according to the method of Cybulsky et al., Am. J. Pathol. 124 [1986] 367.
Recombinant NAF obtained as described under Example 19 is dissolved at 400 μg/ml in minimal essential medium (50 mM) plus 0.45 M NaCl (pH 6.5). Endotoxin (E. coli serotype 055:B5, Sigma, St. Louis, Mo.) is dissolved in pyrogen-free normal saline. fMLP is dissolved in dimethyl sulphoxide at 10^−2 M and diluted to working concentrations in PFS. Polymyxin B and actinomycin D are dissolved in 1 ml ethanol and diluted 20 fold by mixing with NAF, endotoxin or fMLP in PFS. In studies on inhibition of inflammatory responses 40 μg polymyxin B and 10^−7 moles actinomycin D are injected per skin site with […] endotoxin. In all experiments 0.2 ml of inflammatory agents are injected intradermally per site through 26 gauge needles, with 5 replicates of each treatment in each animal.

Data set [4] deals with human neutrophils. Kind of data set: stimulus-dependent exocytosis of granule contents by human neutrophils. In kind it is cell-based. The settings on record: fMLP 0.1 μM. The method, then:
Neutrophils (5×10^6/ml) suspended in PBS/BSA are preincubated with or without cytochalasin B (5 μg/ml) at 37° for 5 min.
Granule release is then initiated by adding the stimulus, e.g. NAF or a standard stimulus. The reaction is stopped 15 min later by rapid cooling in ice followed by centrifugation to sediment the cells. Vitamin B12-binding protein, β-glucuronidase and lactate dehydrogenase are determined in the cell-free media and cell pellets, and the release of these constituents is calculated in percent of the total cellular content (B. Dewalt and M. Baggiolini, Methods Enzymol. 132 [1986] 267).
Natural and recombinant NAF are tested in parallel on human neutrophils. They elicit virtually identical changes in cytosolic free Ca^2+, yielding a maximum rise at a concentration as low as 3 nM (FIG. 15). A nearly identical concentration-dependent respiratory burst response is obtained with both preparations in the range of 1 to 30 nM as assessed by chemiluminescence. The equivalence between natural and recombinant NAF is also reflected by chemotaxis and exocytosis measurements. Chemotactic migration is observed between 0.1 and 10 nM with a maximum effect at 1 nM. (Table 6). With either peptide a significant release of vitamin B12-binding protein from the specific granules at 0.3 nM and of beta-glucuronidase from the azurophil granules at 1 nM is observed.

The next data set has as its system Rabbit neutrophils. In words: NAF-induced exocytosis in rabbit neutrophils (N-acetyl-β-glucosaminidase release). The class given is cell-based. The settings on record: stimulus 100.0 nM, 15 min, cytochalasin B pretreated; purified natural NAF. The method, then: Rabbit neutrophils are isolated from peripheral blood (obtained from the ear vein or artery) by dextran sedimentation followed by Hypaque-Ficoll density gradient centrifugation. Purified natural NAF is used.
Exocytosis conditions: 0.6×10^6 cells (in a total volume of 0.15 ml) pretreated with cytochalasin B for 5 min at 37° are stimulated with NAF (0.1-100 nM) or fMLP (100 nM) for 15 min. N-acetyl-β-glucosaminidase, an azurophil granule marker, is determined in the cell-free medium.

Data set [5] has as its system human neutrophils. Kind of data set: hydrogen peroxide formation by chemiluminescence in human neutrophils. In kind it is cell-based. How it is done:
b) H2O2-dependent chemiluminescence: the progress curves following stimulation with partially purified NAF and approximately equiactive concentrations of C5a and fMLP are shown on the left. The initial phase of the response is detailed on the right. The stimulants are added in 50 μl of PBS-BSA.
Lower graphs: respiratory burst induced by natural (left) and recombinant (right) NAF. Neutrophils (10^6 cells/ml) are stimulated with 3, 10 and 30 nM NAF at time zero and hydrogen peroxide production is measured by chemiluminescence (M. P. Wymann et al., Anal. Biochem. 165 [1987] 371-378).
The properties of NAF, fMLP and C5a as stimuli of the respiratory burst are compared by assessing the production of superoxide or hydrogen peroxide by the stimulated cells. Superoxide formation is determined as described in Example 13. Hydrogen peroxide formation is determined by chemiluminescence (M. P. Wymann et al., Anal. Biochem. 165 [1987] 371-378). The assay mixture consisting of PBS-BSA containing 0.1 M sodium azide, 0.01 mM luminol, 9 U/ml horseradish peroxidase and 10^6 neutrophils is preincubated for 10 min at 37° and the reaction is started by adding the stimulus via a microsyringe.

The next data set relates to human monocytes. Kind of data set: NAF production by stimulated human mononuclear cells/monocytes (read out as elastase release). In kind it is cell-based. The settings on record: mononuclear cell fraction; PHA 5 μg/ml or ConA 10 μg/ml. The method, then: […] At various time intervals the media are collected, cleared by centrifugation (20000 rpm for 20 min. at 4° C.) and NAF activity is measured. Cells from a single donor; means of duplicate cultures.
Human monocytes are isolated from buffy coats of donor blood (Swiss Red Cross Laboratory, Bern, Switzerland) by centrifugation through a Ficoll-Paque gradient. This method separates neutrophils from the so-called mononuclear cells, a mixture of monocytes (about 20%) and lymphocytes (about 80%). Three monocyte preparations are used: (i) the total mononuclear cell fraction, (ii) monocytes enriched from the mononuclear cell fraction by adherence, and (iii) 90% pure monocytes separated from the lymphocytes by centrifugal elutriation (G. Garotta et al., Biochem. Biophys. Res. Comm. 140 [1986] 948-954 and K. J. Clemetson et al., J. Exp. Med. 161 [1985] 972-983). […] At different times, aliquots of the culture media are sampled and NAF activity is determined as the capacity to induce the release of elastase from human neutrophils pretreated with cytochalasin B (B. Dewald et al., Biochem. Pharmacol. 36 [1987] 2505-2510).
Mononuclear cell cultures (5×10^6 cells/ml) consisting of monocytes and lymphocytes in a ratio of approximately 1:5 produce NAF when stimulated with LPS (100 ng/ml). NAF accumulates in the medium over 24 h and the production levels off between 24 h and 48 h. […]

A short description of data set [6]: exposure to fresh human serum, then activity (superoxide production). To be noted: 15 minutes with fresh human serum. In kind it is in vitro ADME. How it is done:
C5A and NAF are incubated for 15 minutes with fresh human serum or with PBS and the activity of the preparations is determined (superoxide production).
Since C5a and NAF have similar effects on neutrophils, further experiments must be performed to discriminate entirely between the two. Samples of NAF and C5a are exposed to fresh human serum.

Another data set deals with neutrophils. In words: sequential/repeated stimulation of neutrophils (desensitization, superoxide formation). The settings on record: superoxide formation. The class given is cell-based, human. The method, then: a) Neutrophils (3×10^6 /ml) are preincubated at 37° C. for 5 min. and then stimulated with different agonists as indicated (arrows).
b) Sequential or repeated stimulation with NAF and C5a. Conditions as in a).
Arrows show addition of agonists as indicated. The concentration of C5a is 0.5 nM in a) and 0.2 nM in b), that of fMLP is 20 nM in both experiments. The agonists are added in 50 μl of PBS-BSA.
On the other hand, when agonists acting on different receptors are used in sequence.(e.g. fMLP followed by C5a) these stimulations yield a normal response. Experiments of this type are therefore used to find out whether NAF acts by its own receptor or via a receptor also used by other agonists.

Where [7] appears, read: with CB (cytochalasin B 5 μg/ml).

Starred links: 1 amine or outer side, 2 acyl side, 3 side chain; linkers in the order of their positions; H or OH if unused. Positions of bridges follow the written chain, without caps; N, C: chain ends. Non-standard residues stand in square brackets, D forms with d. Residues, ends and D or L forms follow the SMILES beside them. Chains are numbered I, II in the order given. Actinocin(9to1) = Cc1c2oc3c(C)ccc(C(=O)[*:1])c3nc-2c(C(=O)[*:2])c(N)c1=O; NMeV = CN[C@H](C(=O)O)C(C)C; Sar = CNCC(=O)O

In the case of “1-0-hexadecyl-2-0-acetyl-sn-glycero-3-phosphocholine [PAF, reference compound]”, the “time between stimulus addition and onset of H2O2 production, as previously reported” value in the data set on human neutrophils [1] is on record as “about 2 sec”. Moreover, the “effect of pretreatment of the cells with PAF on the superoxide response to NAF” value in the data set on human neutrophils [2] was “markedly enhanced”.
On to `Cc1c2oc3c(C)ccc(C(=O)N[C@@H]4C(=O)N[C@H](C(C)C)C(=O)N5CCC[C@H]5C(=O)N(C)CC(=O)N(C)[C@@H](C(C)C)C(=O)O[C@@H]4C)c3nc-2c(C(=O)N[C@@H]2C(=O)N[C@H](C(C)C)C(=O)N3CCC[C@H]3C(=O)N(C)CC(=O)N(C)[C@@H](C(C)C)C(=O)O[C@@H]2C)c(N)c1=O` [actinomycin D] (I: T[dV]P[Sar][NMeV] / II: T[dV]P[Sar][NMeV]; ester I:1-I:C, II:1-II:C; linker I:N-II:N via Actinocin(9to1)), for which, in data set [3] (actinomycin D 10^−7 moles/site), the “effect on neutrophil accumulation induced by NAF” value is “no effect” and the “effect on neutrophil accumulation induced by fMLP” value is “no effect”. For the same molecule, the “inhibition of neutrophil accumulation induced by endotoxin” value in data set [3] (actinomycin D 10^−7 moles/site, endotoxin 10^−13 moles) is 90%.
As for `CSCC[C@H](NC=O)C(=O)N[C@@H](CC(C)C)C(=O)N[C@@H](Cc1ccccc1)C(=O)O` [fMLP, N-formyl-L-methionyl-L-leucyl-L-phenylalanine, reference compound], the “time between stimulus addition and onset of H2O2 production, as previously reported” value in the data set on human neutrophils [1] is reported as “about 2 sec”. Also, in the data set on human neutrophils [4] (setting [7]), the “Percent release of Vit. B12-binding protein” value amounted to 35.6 ± 5.5%, the “Percent release of lactate dehydrogenase” value is listed as 5.3 ± 1.6% and the “Percent release of β-glucuronidase” value was 12.1 ± 4.4%. In the data set with human neutrophils [4] (without CB), the “Percent release of Vit. B12-binding protein” value was 14.0 ± 0.9%, the “Percent release of lactate dehydrogenase” value is given as 5.7 ± 1.1% and the “Percent release of β-glucuronidase” value was 2.3 ± 0.8%. Moreover, the N-acetyl-β-glucosaminidase in the data set on Rabbit neutrophils was determined as 181 pmol/min. For the same molecule, the “time between stimulus addition and onset of H2O2 production” value in the data set on human neutrophils [5] is recorded as “about 2 sec”.
For `CCCCC/C=C\C[C@@H](O)/C=C/C=C/C=C\[C@@H](O)CCCC(=O)O` [leukotriene B4], in the data set with human neutrophils [1], the “time between stimulus addition and onset of H2O2 production, as previously reported” value was “about 2 sec”.
For the molecule Polymyxin B, in [3] (polymyxin B 40 μg/site), the “effect on neutrophil accumulation induced by NAF” value is on record as “without effect” and the “effect on neutrophil accumulation induced by fMLP” value is “without effect”. Besides, the “inhibition of the response to endotoxin” value in data set [3] (polymyxin B 40 μg/site, endotoxin 10^−13 moles) was 84%.
Regarding concanavalin A [ConA], in the data set with human monocytes, the “time at which maximum of NAF production is reached” value is reported as “about 24 h”.
For phytohemagglutinin [PHA], the “time at which maximum of NAF production is reached” value with human monocytes is given as “about 24 h”.

B1: C5a: anaphylatoxin (protein, UniProt P01031 678-751, looked up)
C5a anaphylatoxin: TLQKKIEEIAAKYKHSVVKKCCYDGACVNNDETCEQRAARISLGPRCIKAFTECCVVASQLRANISHKDMQLGR
modifications: C5a anaphylatoxin
With B1, in the data set with human neutrophils [1], the “time between stimulus addition and onset of H2O2 production, as previously reported” value is reported as “about 2 sec”. In addition, the “effect of serum treatment on activity” value in data set [6] was “completely abolishes”. For the same molecule, in the data set on neutrophils, the “desensitization to a second stimulation with the same agonist” value is listed as “complete desensitization”. Further, the “time between stimulus addition and onset of H2O2 production” value with human neutrophils [5] is given as “about 2 sec”.
